Measurements reported in ChEMBL document CHEMBL1151646, “Methyl -Orcinolcarboxylate and Depsides from Parmelia furfuracea” (1985).
Where a name gives a salt, the structure may show the parent alone.

Legend:
Format in all cases: functional
Conditions in all cases: read-out: IZ
Escherichia coli [1] = assay: Antimicrobial activity against Escherichia coli B ATCC 11303 at 6 ug
Bacillus subtilis [2] = assay: Antimicrobial activity against Bacillus subtilis ATCC 6633 at 0.6 ug
Penicillium digitatum [3] = assay: Antimicrobial activity against Penicillium digitatum at 24 ug
Saccharomyces cerevisiae [4] = assay: Antimicrobial activity against Saccharomyces cerevisiae at 24 ug
Escherichia coli [5] = assay: Antimicrobial activity against Escherichia coli B ATCC 11303 at 400 ug
Bacillus subtilis [6] = assay: Antimicrobial activity against Bacillus subtilis ATCC 6633 at 400 ug
Saccharomyces cerevisiae [7] = assay: Antimicrobial activity against Saccharomyces cerevisiae at 400 ug
Penicillium digitatum [8] = assay: Antimicrobial activity against Penicillium digitatum at 40 ug

CN[C@@H]1[C@H](O[C@H]2[C@H](O[C@H]3[C@H](O)[C@@H](O)[C@H](N=C(N)N)[C@@H](O)[C@@H]3N=C(N)N)O[C@@H](C)[C@]2(O)C=O)O[C@@H](CO)[C@H](O)[C@H]1O [STREPTOMYCIN SULFATE]
zone of inhibition at 6 µg/disc (Escherichia coli [1]): 17 mm | zone of inhibition at 0.6 µg/disc (Bacillus subtilis [2]): 16 mm

CCCCC[C@@H](O)[C@H]1C(=O)O[C@H](C)[C@@H](O)/C=C/C=C/C=C/C=C/C=C(\C)[C@@H](O)C[C@H](O)C[C@H](O)C[C@H](O)C[C@H](O)C[C@H](O)C[C@@H]1O [FILIPIN]
zone of inhibition at 24 µg/disc (Penicillium digitatum [3]): 29 mm | zone of inhibition at 24 µg/disc (Saccharomyces cerevisiae [4]): 21 mm

COC(=O)c1c(C)cc(O)c(C)c1O [ATRARIC ACID]
zone of inhibition at 400 µg/disc (Escherichia coli [5]): 15 mm | zone of inhibition at 400 µg/disc (Bacillus subtilis [6]): 17 mm | zone of inhibition at 400 µg/disc (Saccharomyces cerevisiae [7]): 18 mm | zone of inhibition at 40 µg/disc (Penicillium digitatum [8]): 29 mm
